US10450298B2, “PET Imaging agents” (Novartis AG, priority 2015, dated 2019)

target: Recombinant human ATX (Homo sapiens (Human), UniProt Q13822); experiment: Assessing ATX inhibition (choline release, Amplex Red fluorescence); assay type: biochemical; details: ATX 10 nM, LPC 18:1 10 μM, pre-incubated at 37° C. for 20 minutes; mean of n≥2
Procedure: Reagents—LPC (oleoyl (18:1)) was purchased from Avanti Polar Lipids (Alabaster, Ala.) and solubilized in methanol to 20 mM. Amplex Red was obtained from Invitrogen Life Technologies (Paisley, UK) and dissolved in DMSO to 10 mM. Choline oxidase and horseradish peroxidase (HRP) were obtained from Sigma Aldrich (Dorset, UK) and dissolved in HBSS to 20 U/ml and 200 U/ml respectively. All reagents were stored at −20° C. in single use aliquots. All experimental measurements were performed in assay buffer made up immediately prior to use (HBSS, 0.01% BSA essentially fatty acid free).
Protein—Recombinant human ATX was prepared at Novartis (Basel, CH) in a human embryonic kidney (HEK) cell preparation, and stored in single use aliquots of […] (26 μM) stocks stored at −80° C.
Method—All experimental measurements should be performed in black 384 well polystyrene (low volume, round bottom, Corning (3676)) plates. PerkinElmer EnVision (Fluorescence Intensity/Absorbance Monochromator) or Tecan Infinite 200 PRO series plate reader was used to detect change in fluorescent intensity.
Assessing ATX inhibition—ATX activity was determined by measurement of released choline in reactions containing ATX (10 nM), choline oxidase (0.1 U/ml), HRP (100 U/ml), amplex red (50 μM) and LPC 18:1 (10 μM). Compounds of the invention should be prepared as 10 point serial dilutions from 1 μM in duplicate and pre-incubated with ATX at 37° C. for 20 minutes prior to the addition of remaining reagents. The liberated choline was measured from changes in fluorescence intensity (λex 530 nm, λm 590 nm) of the product resurofin at 37° C. every 2 minutes over a 40-minute period. ATX activity was measured as a slope of the linear portion of the progress curve, typically between 14 to 24 minutes.
Data analysis—Slope data was exported to Graphpad prism (Graphpad software, San Diego, Calif.) where data was fitted to equation 1. Y=Bottom+(Top−Bottom)/(1+10^((Log IC50−X)*HillSlope)) Equation 1
IC50 values were determined from the concentration of compound that reduced the total activity by 50% and represent the mean of n≥2.

Row | Structure (SMILES) | IC50
1 | Cc1nnn(Cc2cc(C(F)(F)F)ccc2/C=C/C(=O)N2CCN(Cc3ccc(OCCF)cn3)C[C@H]2C)n1 | 3 nM
2 | Cc1nnn(Cc2cc(Cl)ccc2/C=C/C(=O)N2CCN(Cc3ccc(OCCF)cn3)C[C@H]2C)n1 | 4 nM
3 | Cc1nnn(Cc2cc(C(F)(F)F)ccc2/C=C/C(=O)N2CCN(Cc3coc(CF)n3)C[C@H]2C)n1 | 1.4 nM
4 | Cc1nnn(Cc2cc(Cl)ccc2/C=C/C(=O)N2CCN(Cc3ccc(OCCOCCF)cn3)C[C@H]2C)n1 | 5 nM
5 | COc1cc(CN2CCN(C(=O)/C=C/c3ccc(Cl)cc3Cn3nnc(C)n3)CC2)ccn1 | 13 nM
6 | Cc1nnn(Cc2cc(C(F)(F)F)ccc2CCC(=O)N2CCN(Cc3ccc(OCCF)cn3)C[C@H]2C)n1 | 2 nM
7 | Cc1nnn(Cc2cc(C(F)(F)F)ccc2/C=C/C(=O)N2CCN(Cc3ccc(OCCOCCF)cn3)C[C@H]2C)n1 | 6 nM
